Results as given in PubChem BioAssay (NCI).
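Cultured in 96-well plates, cells were exposed to test compound for 48 hours across five concentrations. TGI is the concentration that stops growth completely.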

What was measured:
Experiment in all cases: growth of human tumour cells (NCI), 48 h
UACC-62 melanoma = system: UACC-62 melanoma
OVCAR-8 ovarian = system: OVCAR-8 ovarian
IGROV1 ovarian = system: IGROV1 ovarian
EKVX NSCLC = system: EKVX NSCLC
PC-3 prostate = system: PC-3 prostate
MDA-MB-435 = system: MDA-MB-435
HCT-116 colon = system: HCT-116 colon
KM12 colon = system: KM12 colon
CCRF-CEM leukemia = system: CCRF-CEM leukemia
RXF 393 renal = system: RXF 393 renal
OVCAR-4 ovarian = system: OVCAR-4 ovarian
MDA-MB-231 breast = system: MDA-MB-231 breast
NCI/ADR-RES ovarian = system: NCI/ADR-RES ovarian
A498 renal = system: A498 renal
SK-MEL-2 melanoma = system: SK-MEL-2 melanoma
HCC-2998 colon = system: HCC-2998 colon
SK-MEL-28 melanoma = system: SK-MEL-28 melanoma
MOLT-4 leukemia = system: MOLT-4 leukemia
DU-145 prostate = system: DU-145 prostate
SF-295 CNS = system: SF-295 CNS
ACHN renal = system: ACHN renal
SR leukemia = system: SR leukemia
M14 melanoma = system: M14 melanoma
HT29 colon = system: HT29 colon
HCT-15 colon = system: HCT-15 colon
HOP-92 NSCLC = system: HOP-92 NSCLC
SF-268 CNS = system: SF-268 CNS
A549 NSCLC = system: A549 NSCLC
TK-10 renal = system: TK-10 renal
COLO 205 colon = system: COLO 205 colon
NCI-H460 lung = system: NCI-H460 lung
MDA-N = system: MDA-N
SNB-75 CNS = system: SNB-75 CNS
SN12C renal = system: SN12C renal
786-0 renal = system: 786-0 renal
BT-549 breast = system: BT-549 breast
SK-MEL-5 melanoma = system: SK-MEL-5 melanoma
SNB-19 CNS = system: SNB-19 CNS
SK-OV-3 ovarian = system: SK-OV-3 ovarian
T-47D breast = system: T-47D breast
OVCAR-3 ovarian = system: OVCAR-3 ovarian
SF-539 CNS = system: SF-539 CNS
UACC-257 melanoma = system: UACC-257 melanoma
NCI-H23 lung = system: NCI-H23 lung
MALME-3M melanoma = system: MALME-3M melanoma
LOX IMVI melanoma = system: LOX IMVI melanoma
HS 578T breast = system: HS 578T breast
MCF7 breast = system: MCF7 breast
HOP-62 NSCLC = system: HOP-62 NSCLC
UO-31 renal = system: UO-31 renal
NCI-H522 lung = system: NCI-H522 lung
U251 CNS = system: U251 CNS
SW-620 colon = system: SW-620 colon
RPMI-8226 leukemia = system: RPMI-8226 leukemia
CAKI-1 renal = system: CAKI-1 renal
NCI-H226 lung = system: NCI-H226 lung
OVCAR-5 ovarian = system: OVCAR-5 ovarian
K-562 leukemia = system: K-562 leukemia
HL-60(TB) leukemia = system: HL-60(TB) leukemia

NCCSCCC(=O)O
TGI (UACC-62 melanoma): > 70.9 µM
TGI (OVCAR-8 ovarian): > 100 µM
TGI (IGROV1 ovarian): > 100 µM
TGI (EKVX NSCLC): > 100 µM
TGI (PC-3 prostate): > 100 µM
TGI (MDA-MB-435): > 100 µM
TGI (HCT-116 colon): > 100 µM
TGI (KM12 colon): > 100 µM
TGI (CCRF-CEM leukemia): > 100 µM
TGI (RXF 393 renal): > 100 µM
TGI (OVCAR-4 ovarian): > 100 µM
TGI (MDA-MB-231 breast): > 100 µM
TGI (NCI/ADR-RES ovarian): > 100 µM
TGI (A498 renal): 99.5 µM
TGI (SK-MEL-2 melanoma): > 100 µM
TGI (HCC-2998 colon): 98.4 µM
TGI (SK-MEL-28 melanoma): > 71.8 µM
TGI (MOLT-4 leukemia): > 100 µM
TGI (DU-145 prostate): > 100 µM
TGI (SF-295 CNS): > 92.3 µM
TGI (ACHN renal): > 56.1 µM
TGI (SR leukemia): > 83.9 µM
TGI (M14 melanoma): > 100 µM
TGI (HT29 colon): > 100 µM
TGI (HCT-15 colon): > 100 µM
TGI (HOP-92 NSCLC): > 100 µM
TGI (SF-268 CNS): > 100 µM
TGI (A549 NSCLC): > 100 µM
TGI (TK-10 renal): > 100 µM
TGI (COLO 205 colon): > 74.3 µM
TGI (NCI-H460 lung): > 37.9 µM
TGI (MDA-N): > 100 µM
TGI (SNB-75 CNS): > 92.6 µM
TGI (SN12C renal): > 100 µM
TGI (786-0 renal): > 100 µM
TGI (BT-549 breast): > 100 µM
TGI (SK-MEL-5 melanoma): > 85.3 µM
TGI (SNB-19 CNS): > 100 µM
TGI (SK-OV-3 ovarian): > 100 µM
TGI (T-47D breast): > 84.2 µM
TGI (OVCAR-3 ovarian): > 100 µM
TGI (SF-539 CNS): > 100 µM
TGI (UACC-257 melanoma): > 100 µM
TGI (NCI-H23 lung): > 62.7 µM
TGI (MALME-3M melanoma): > 100 µM
TGI (LOX IMVI melanoma): > 93.7 µM
TGI (HS 578T breast): > 100 µM
TGI (MCF7 breast): > 100 µM
TGI (HOP-62 NSCLC): > 100 µM
TGI (UO-31 renal): > 100 µM
TGI (NCI-H522 lung): > 100 µM
TGI (U251 CNS): > 67.4 µM
TGI (SW-620 colon): > 100 µM
TGI (RPMI-8226 leukemia): > 92.3 µM
TGI (CAKI-1 renal): > 100 µM
TGI (NCI-H226 lung): > 100 µM
TGI (OVCAR-5 ovarian): > 100 µM
TGI (K-562 leukemia): > 100 µM
TGI (HL-60(TB) leukemia): > 100 µM

CCCCCCCCOc1ccc(/C=C/C2=[N+](CCO)CCO2)cc1
TGI (UACC-62 melanoma): 17.2 µM
TGI (OVCAR-8 ovarian): 12.3 µM
TGI (IGROV1 ovarian): 13.8 µM
TGI (EKVX NSCLC): 14.9 µM
TGI (PC-3 prostate): 10.3 µM
TGI (MDA-MB-435): 14.5 µM
TGI (HCT-116 colon): 10.2 µM
TGI (KM12 colon): 11 µM
TGI (CCRF-CEM leukemia): 6.43 µM
TGI (RXF 393 renal): 7.91 µM
TGI (OVCAR-4 ovarian): 14.2 µM
TGI (MDA-MB-231 breast): 11.4 µM
TGI (NCI/ADR-RES ovarian): 29.4 µM
TGI (A498 renal): 11.7 µM
TGI (SK-MEL-2 melanoma): 7.26 µM
TGI (HCC-2998 colon): 11.9 µM
TGI (SK-MEL-28 melanoma): 9.12 µM
TGI (MOLT-4 leukemia): 9.27 µM
TGI (DU-145 prostate): 16.4 µM
TGI (SF-295 CNS): 16.9 µM
TGI (ACHN renal): 13 µM
TGI (SR leukemia): 4.66 µM
TGI (M14 melanoma): 20 µM
TGI (HT29 colon): 8.26 µM
TGI (HCT-15 colon): 25 µM
TGI (HOP-92 NSCLC): 6.51 µM
TGI (SF-268 CNS): 20.5 µM
TGI (A549 NSCLC): 10.7 µM
TGI (TK-10 renal): 17.3 µM
TGI (COLO 205 colon): 5.69 µM
TGI (NCI-H460 lung): 10.5 µM
TGI (MDA-N): 12.3 µM
TGI (SNB-75 CNS): 9.2 µM
TGI (SN12C renal): 11.9 µM
TGI (786-0 renal): 13.7 µM
TGI (BT-549 breast): 14.5 µM
TGI (SK-MEL-5 melanoma): 7.04 µM
TGI (SNB-19 CNS): 17.5 µM
TGI (SK-OV-3 ovarian): 11.9 µM
TGI (T-47D breast): 13.2 µM
TGI (OVCAR-3 ovarian): 28 µM
TGI (SF-539 CNS): 11 µM
TGI (UACC-257 melanoma): 12.4 µM
TGI (NCI-H23 lung): 5.28 µM
TGI (MALME-3M melanoma): 12.2 µM
TGI (HS 578T breast): 17.2 µM
TGI (MCF7 breast): > 100 µM
TGI (HOP-62 NSCLC): 39.8 µM
TGI (UO-31 renal): 25.1 µM
TGI (NCI-H522 lung): 6.25 µM
TGI (U251 CNS): 8.13 µM
TGI (SW-620 colon): 6.8 µM
TGI (RPMI-8226 leukemia): 5.02 µM
TGI (CAKI-1 renal): 19.7 µM
TGI (NCI-H226 lung): 12.3 µM
TGI (OVCAR-5 ovarian): 26.4 µM
TGI (K-562 leukemia): 4.87 µM
TGI (HL-60(TB) leukemia): 4.74 µM
